{"source": "paper PMC10762068", "about": "“Selective blockade of Cav1.2 (α1C) versus Cav1.3 (α1D) L-type calcium channels by the black mamba toxin calciseptine” (Nature Communications, 2024)", "key": {"Cav1.3_42": {"test_system": "Cav1.3_42", "test": "Whole cell recording of ICav1.3-42 in HEK-293T cells", "format": "cell-based", "details": "for L-type Ca2+ current density: mean ± SEM, n=6", "protocol": "(§1) HEK-293T (RRID:CVCL_2737) were obtained from the European Collection of Authenticated Cell Cultures (ECACC 96121229). The identity of HEK-293T has been confirmed by STR profiling and the cells have been eradicated from mycoplasma at ECACC. We routinely tested the cells for the absence of the mycoplasma contamination. Cells were cultivated at 37 °C in DMEM supplemented with GlutaMax, 10% fetal bovine serum and 1% penicillin/streptomycin (Invitrogen, Fisher Scientific, France). Transfections were performed using jet-PEI (Ozyme, France) with a DNA mix containing either the plasmids that code for Cav1.2-GFP, β2a and α2δ (0.8 µg of each) or either the plasmids that code for Cav1.3 (with and without exon 42a), or Cav2.1, or either Cav2.2 combined with β2a and α2δ (0.8 µg of each supplemented with 0.025 µg of a plasmid coding for GFP). For Cav3.1 expression β2a and α2δ subunits were omitted. Plasmids coding for β2a, α2δ and Cav1.3 were created as described previously. Plasmid coding for Cav1.2-GFP was obtained from Dr. Catalucci[60]. After transfection cells were placed at 30 °C for 2–3 days and dissociated with Versene (Invitrogen, Fisher Scientific, France) and plated at a density of ~35 × 10^3 cells per 35 mm Petri dish for electrophysiological recordings, which were performed the following day.\n(§2) Macroscopic currents in HEK-293T cells were recorded at room temperature using an Axopatch 200B or Multiclamp 700B patchclamp amplifier (Molecular Devices, Sunnyvale CA). […] The extracellular solution contained (in mM): 135 NaCl, 20 TEACl, 5 BaCl2, 1 MgCl2, and 10 HEPES (pH adjusted to 7.25 with KOH, ~330 mOsm).\n(§3) In all experiments of cellular electrophysiology, we employed synthetized analog of Cas, commercially available at Latoxan (ID: L8109). The native peptide was purified from the venom of Dendroaspis polylepis purchased from Latoxan, as previoulsly described. The pure peptide was obtained after gel filtration, cation exchange and C18 reversed phase chromatography. Its measured molecular mass (7036.26 Da average) was in accordance with the mass calculated from sequence data (7036.22 Da)."}, "[1]": {"test_system": "Cav1.2 (ICav1.2) in isolated adult mouse ventricular myocytes", "format": "cell-based"}, "[2]": {"test_system": "DHP binding site, brain synaptosomes", "details": "at a rather high concentration; cited from earlier work", "text": "DHPs are prototypical organic blockers of L-type calcium channels widely used in therapeutical applications."}, "[3]": {"test_system": "human ether-a-go-go-related gene (hERG)", "test": "hERG current in Xenopus oocytes", "format": "cell-based", "details": "Cas 1 µM, n=5, Xenopus oocytes, 19-20 °C", "protocol": "Xenopus laevis specimen were purchased from Tefor Paris Saclay. Animal handling and experiments fully conformed to French regulations and were approved by local governmental veterinary services (authorization number E06-152-5 delivered by the Ministère de l’Agriculture, Direction des Services Vétérinaires). Animals were anesthetized by exposure for 20 min to a 0.1% solution of 3-aminobenzoic acid ethyl ester (MS-222) (Sigma) buffered at pH 7.4. Oocytes were surgically removed and dissected away in a saline solution (ND96) containing (in mM) 96 NaCl, 2 KCl, 1.8 CaCl2, 2 MgCl2, and 5 HEPES at pH 7.4 with NaOH. Stage V and VI oocytes were treated for 3 h with collagenase (1 mg/ml, type Ia, Sigma) in the presence of trypsin inhibitor (Sigma) in ND96 to discard follicular cells. pSI-HERG plasmid solutions were injected in nucleus (100 ng/µl, 23 nl/oocyte) using a pressure microinjector. The oocytes were kept at 19 °C in the ND96 saline solution supplemented with penicillin (10 mg/L) and streptomycin (20 mg/L). Oocytes were studied within 2 days following injection of plasmid. In a 0.3-ml perfusion chamber, a single oocyte was impaled with two standard glass microelectrodes (1–2.5 MΩ resistance) filled with 3 M KCl and maintained under voltage- clamp using a Dagan TEV 200 amplifier. […]"}, "Cav1.2": {"target": "T1, Cav1.2 (Homo sapiens, UniProt Q13936)", "T1 construct": "expressed in transfected cells; host or cells: HEK-293T", "T1 sequence (Q13936 whole entry)": "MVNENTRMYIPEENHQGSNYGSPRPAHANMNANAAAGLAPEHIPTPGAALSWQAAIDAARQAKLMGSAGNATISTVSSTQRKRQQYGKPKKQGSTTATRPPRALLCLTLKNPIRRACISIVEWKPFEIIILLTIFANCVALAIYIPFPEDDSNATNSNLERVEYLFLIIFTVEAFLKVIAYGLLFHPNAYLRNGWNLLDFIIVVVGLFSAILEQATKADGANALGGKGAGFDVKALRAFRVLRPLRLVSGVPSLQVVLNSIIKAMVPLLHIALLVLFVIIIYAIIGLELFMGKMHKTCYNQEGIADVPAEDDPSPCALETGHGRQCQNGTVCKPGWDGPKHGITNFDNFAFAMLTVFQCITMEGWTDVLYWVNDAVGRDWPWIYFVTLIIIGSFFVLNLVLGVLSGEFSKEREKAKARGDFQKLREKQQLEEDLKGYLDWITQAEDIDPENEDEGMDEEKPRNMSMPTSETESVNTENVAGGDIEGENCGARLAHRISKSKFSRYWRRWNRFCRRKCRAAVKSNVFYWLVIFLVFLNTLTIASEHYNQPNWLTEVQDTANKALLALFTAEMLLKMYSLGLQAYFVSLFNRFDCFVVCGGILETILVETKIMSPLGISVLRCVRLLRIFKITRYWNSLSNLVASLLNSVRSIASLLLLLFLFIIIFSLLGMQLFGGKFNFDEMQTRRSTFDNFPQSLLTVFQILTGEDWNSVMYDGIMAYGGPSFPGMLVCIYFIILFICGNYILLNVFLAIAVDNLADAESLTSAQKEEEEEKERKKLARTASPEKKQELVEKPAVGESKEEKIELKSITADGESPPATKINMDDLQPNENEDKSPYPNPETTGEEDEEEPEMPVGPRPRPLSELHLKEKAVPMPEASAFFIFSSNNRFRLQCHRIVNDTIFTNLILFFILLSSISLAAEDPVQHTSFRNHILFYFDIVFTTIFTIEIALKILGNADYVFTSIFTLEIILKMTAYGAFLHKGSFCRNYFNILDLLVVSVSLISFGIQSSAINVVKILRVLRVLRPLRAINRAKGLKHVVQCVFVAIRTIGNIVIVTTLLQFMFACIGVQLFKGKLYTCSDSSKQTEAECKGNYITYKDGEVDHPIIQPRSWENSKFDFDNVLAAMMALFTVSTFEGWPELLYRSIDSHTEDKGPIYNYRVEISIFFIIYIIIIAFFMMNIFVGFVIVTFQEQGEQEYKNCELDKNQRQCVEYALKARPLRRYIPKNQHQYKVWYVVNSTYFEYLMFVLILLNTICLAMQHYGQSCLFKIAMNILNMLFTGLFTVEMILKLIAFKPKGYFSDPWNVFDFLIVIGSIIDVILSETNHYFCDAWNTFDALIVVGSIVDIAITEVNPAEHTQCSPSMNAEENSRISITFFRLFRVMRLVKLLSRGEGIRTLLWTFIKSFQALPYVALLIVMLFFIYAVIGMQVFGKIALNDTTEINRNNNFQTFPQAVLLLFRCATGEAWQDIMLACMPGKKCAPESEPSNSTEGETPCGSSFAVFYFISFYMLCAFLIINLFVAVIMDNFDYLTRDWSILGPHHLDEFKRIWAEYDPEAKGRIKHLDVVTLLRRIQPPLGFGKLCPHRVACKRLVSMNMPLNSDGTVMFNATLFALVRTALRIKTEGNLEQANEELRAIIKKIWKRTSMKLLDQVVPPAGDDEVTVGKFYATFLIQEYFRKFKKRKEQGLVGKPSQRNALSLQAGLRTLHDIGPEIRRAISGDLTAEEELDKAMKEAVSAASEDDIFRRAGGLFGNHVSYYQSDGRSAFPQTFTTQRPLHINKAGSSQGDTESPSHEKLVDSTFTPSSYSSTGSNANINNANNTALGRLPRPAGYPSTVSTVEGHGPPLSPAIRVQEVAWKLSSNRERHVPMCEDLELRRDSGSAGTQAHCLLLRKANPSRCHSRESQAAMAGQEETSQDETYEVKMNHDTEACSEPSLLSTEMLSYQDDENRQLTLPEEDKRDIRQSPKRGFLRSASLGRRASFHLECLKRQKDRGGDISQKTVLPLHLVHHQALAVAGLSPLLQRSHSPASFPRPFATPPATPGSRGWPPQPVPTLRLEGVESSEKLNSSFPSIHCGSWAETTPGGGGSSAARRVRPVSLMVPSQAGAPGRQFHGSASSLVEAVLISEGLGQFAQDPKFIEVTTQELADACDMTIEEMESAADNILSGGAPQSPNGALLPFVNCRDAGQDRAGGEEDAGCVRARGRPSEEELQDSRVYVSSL", "T1 sequence (Q08289 whole entry partner)": "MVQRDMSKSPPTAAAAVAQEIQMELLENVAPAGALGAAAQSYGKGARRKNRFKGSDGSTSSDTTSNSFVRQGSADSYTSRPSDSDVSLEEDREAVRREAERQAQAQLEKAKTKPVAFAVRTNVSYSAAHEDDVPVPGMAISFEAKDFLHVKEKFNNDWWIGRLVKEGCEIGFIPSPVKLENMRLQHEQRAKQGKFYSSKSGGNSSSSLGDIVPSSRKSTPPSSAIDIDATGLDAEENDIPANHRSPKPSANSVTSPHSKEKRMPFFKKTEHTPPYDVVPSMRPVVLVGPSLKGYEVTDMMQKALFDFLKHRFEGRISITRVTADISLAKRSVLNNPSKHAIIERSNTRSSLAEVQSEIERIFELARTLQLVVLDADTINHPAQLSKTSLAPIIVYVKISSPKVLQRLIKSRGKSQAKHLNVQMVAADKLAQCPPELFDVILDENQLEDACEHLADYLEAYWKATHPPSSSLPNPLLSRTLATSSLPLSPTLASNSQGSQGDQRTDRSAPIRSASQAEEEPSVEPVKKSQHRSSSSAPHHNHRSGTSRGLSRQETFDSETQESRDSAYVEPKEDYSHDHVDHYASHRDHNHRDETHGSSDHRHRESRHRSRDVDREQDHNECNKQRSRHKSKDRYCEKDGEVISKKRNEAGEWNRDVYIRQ", "T1 sequence (P54289 25-956 partner limits assumed)": "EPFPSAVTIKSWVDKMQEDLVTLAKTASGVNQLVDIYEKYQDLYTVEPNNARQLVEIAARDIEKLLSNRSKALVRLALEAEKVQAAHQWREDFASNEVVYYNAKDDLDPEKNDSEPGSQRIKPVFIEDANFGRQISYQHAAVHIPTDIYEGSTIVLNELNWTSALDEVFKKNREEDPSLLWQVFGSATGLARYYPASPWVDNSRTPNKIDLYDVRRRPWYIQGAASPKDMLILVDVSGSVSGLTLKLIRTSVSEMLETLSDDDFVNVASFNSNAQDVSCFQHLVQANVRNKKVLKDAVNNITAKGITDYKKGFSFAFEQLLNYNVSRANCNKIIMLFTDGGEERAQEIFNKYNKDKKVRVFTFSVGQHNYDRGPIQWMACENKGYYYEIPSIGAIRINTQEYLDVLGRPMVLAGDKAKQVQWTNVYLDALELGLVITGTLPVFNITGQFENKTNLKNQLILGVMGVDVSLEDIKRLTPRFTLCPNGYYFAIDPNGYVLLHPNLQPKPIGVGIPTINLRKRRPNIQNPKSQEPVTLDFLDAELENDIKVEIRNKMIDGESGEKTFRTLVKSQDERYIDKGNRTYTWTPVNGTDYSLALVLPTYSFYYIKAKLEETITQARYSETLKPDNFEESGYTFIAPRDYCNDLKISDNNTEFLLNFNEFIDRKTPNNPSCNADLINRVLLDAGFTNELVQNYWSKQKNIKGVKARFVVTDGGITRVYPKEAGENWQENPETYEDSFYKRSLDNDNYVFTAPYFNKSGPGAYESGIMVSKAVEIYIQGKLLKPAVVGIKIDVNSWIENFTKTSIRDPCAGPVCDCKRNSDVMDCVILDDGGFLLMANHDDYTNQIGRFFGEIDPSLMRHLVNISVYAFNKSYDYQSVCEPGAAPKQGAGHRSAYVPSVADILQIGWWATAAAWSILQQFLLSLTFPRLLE", "T1 sequence (P54289 957-1103 partner limits assumed)": "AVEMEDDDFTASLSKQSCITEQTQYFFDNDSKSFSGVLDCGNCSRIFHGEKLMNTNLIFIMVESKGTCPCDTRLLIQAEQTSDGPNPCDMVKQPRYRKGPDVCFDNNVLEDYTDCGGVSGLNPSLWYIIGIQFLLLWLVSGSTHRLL", "test": "cell-based", "format": "cell-based", "details": "for L-type Ca2+ current density: mean ± SEM, n=11", "protocol": "as §1, §2\nas §3, with “chromatography.” for “chromatography. Its measured molecular mass (7036.26 Da average) was in accordance with the mass calculated from sequence data (7036.22 Da).”"}, "[4]": {"details": "HEK-293T, read-out: inhibition of ICav1.2"}}, "note": "Entries after “also recorded” stand apart in the source; their conditions may differ. Read-outs that look alike come from different tables or passages of the source. Positions of bridges follow the written chain, without caps; N, C: chain ends. No end group written: not given here."}
{"sequence": "RICYIHKASLPRATKTCVENTCYKMFIRTQREYISERGCGCPTAMWPYQTECCKGDRCNK (disulfide 3-22, 17-39, 41-52, 53-58 (inferred)) [Cas, calciseptine]", "values": [{"measurement": "reduction of Ca current, long form of Cav1.3 (Cav1.3L)", "setting": "Cav1.3_42; Cas 300 nM and 1 µM", "value": "did not observe any reduction"}, {"measurement": "effect on ICav1.3-42 (I-V relationship)", "setting": "Cav1.3_42; Cas 300 nM, all voltages tested, at peak p = 0.5696, n=6/N=3", "value": "no significant effect"}, {"measurement": "L-type Ca2+ current density", "setting": "Cav1.3_42; Cas 300 nM, 0 mV, Ctrl -15.10± 3.34", "value": "-14.76± 4.28", "unit": "pA/pF"}, {"measurement": "L-type Ca2+ current density", "setting": "Cav1.3_42; Cas 300 nM, +10 mV, Ctrl -12.01± 2.36", "value": "-11.09± 3.45", "unit": "pA/pF"}, {"measurement": "L-type Ca2+ current density", "setting": "Cav1.3_42; Cas 300 nM, +20 mV, Ctrl -6.20± 1.35", "value": "-6.12± 2.78", "unit": "pA/pF"}, {"measurement": "L-type Ca2+ current density", "setting": "Cav1.3_42; Cas 300 nM, +30 mV, Ctrl -3.03± 0.66", "value": "-2.96± 2.36", "unit": "pA/pF"}, {"measurement": "L-type Ca2+ current density", "setting": "Cav1.3_42; Cas 300 nM, -10 mV, Ctrl -15.68± 3.76", "value": "-15.81± 4.50", "unit": "pA/pF"}, {"measurement": "L-type Ca2+ current density", "setting": "Cav1.3_42; Cas 300 nM, -20 mV, Ctrl -12.28± 3.31", "value": "-12.95± 3.93", "unit": "pA/pF"}, {"measurement": "reduction of ICav1.3-42", "setting": "Cav1.3_42; all concentrations tested (up to 1 µM), holding −60 mV, step 0 mV, 300 nM n=6/N=3, 1 µM n=7/N=3", "value": "did not record a statistically significant reduction"}, {"measurement": "L-type Ca2+ current density", "setting": "[1]; Cas 100 nM alone or + Nife 3 µM, +10 mV, Ctrl -9.81±1.32, n=9", "value": "-6.14±1.02", "unit": "pA/pF"}, {"measurement": "L-type Ca2+ current density", "setting": "[1]; Cas 100 nM alone or + Nife 3 µM, +20 mV, Ctrl -8.04±1.33, n=9", "value": "-5.17±0.93", "unit": "pA/pF"}, {"measurement": "L-type Ca2+ current density", "setting": "[1]; Cas 100 nM alone or + Nife 3 µM, +40 mV, Ctrl -3.68±0.68, n=9", "value": "-2.24±0.46", "unit": "pA/pF"}, {"measurement": "L-type Ca2+ current density", "setting": "[1]; Cas 100 nM alone or + Nife 3 µM, -10 mV, Ctrl -5.27±0.86, n=9", "value": "-3.45±0.54", "unit": "pA/pF"}, {"measurement": "L-type Ca2+ current density", "setting": "[1]; Cas 100 nM alone or + Nife 3 µM, -20 mV, Ctrl -1.26±0.27, n=9", "value": "-1.21±0.20", "unit": "pA/pF"}, {"measurement": "reduction of ICav1.2", "setting": "[1]; Cas 100 nM, 300 nM, 1 µM, voltages −25 mV to +40 mV, holding −55 mV", "value": "dose-dependently reduced"}, {"measurement": "L-type Ca2+ current density", "setting": "[1]; Cas 300 nM alone or + Nife 3 µM, 0 mV, Ctrl -10.51±1.51, n=7", "value": "-3.07±0.59", "unit": "pA/pF"}, {"measurement": "L-type Ca2+ current density", "setting": "[1]; Cas 300 nM alone or + Nife 3 µM, +10 mV, Ctrl -10.15±1.38, n=7", "value": "-3.66±0.55", "unit": "pA/pF"}, {"measurement": "L-type Ca2+ current density", "setting": "[1]; Cas 300 nM alone or + Nife 3 µM, +20 mV, Ctrl -8.09±1.11, n=7", "value": "-3.32±0.45", "unit": "pA/pF"}, {"measurement": "L-type Ca2+ current density", "setting": "[1]; Cas 300 nM alone or + Nife 3 µM, +40 mV, Ctrl -3.36±0.49, n=7", "value": "-1.58±0.23", "unit": "pA/pF"}, {"measurement": "L-type Ca2+ current density", "setting": "[1]; Cas 300 nM alone or + Nife 3 µM, -10 mV, Ctrl -6.58±1.29, n=7", "value": "-1.63±0.37", "unit": "pA/pF"}, {"measurement": "L-type Ca2+ current density", "setting": "[1]; Cas 300 nM alone or + Nife 3 µM, -20 mV, Ctrl -2.02±0.86, n=7", "value": "-0.52±0.07", "unit": "pA/pF"}, {"measurement": "L-type Ca2+ current density", "setting": "[1]; Cas 1 µM alone or + Nife 3 µM, 0 mV, Ctrl -9.85±1.04, n=6", "value": "-2.28±0.33", "unit": "pA/pF"}, {"measurement": "L-type Ca2+ current density", "setting": "[1]; Cas 1 µM alone or + Nife 3 µM, +10 mV, Ctrl -8.83±1,09, n=6", "value": "-3.38±0.15", "unit": "pA/pF"}, {"measurement": "L-type Ca2+ current density", "setting": "[1]; Cas 1 µM alone or + Nife 3 µM, +20 mV, Ctrl -6.41±0.90, n=6", "value": "-3.38±0.12", "unit": "pA/pF"}, {"measurement": "L-type Ca2+ current density", "setting": "[1]; Cas 1 µM alone or + Nife 3 µM, +40 mV, Ctrl -2.75±0.60, n=6", "value": "-1.35±0.11", "unit": "pA/pF"}, {"measurement": "L-type Ca2+ current density", "setting": "[1]; Cas 1 µM alone or + Nife 3 µM, -10 mV, Ctrl -7.71±0.98, n=6", "value": "-0.87±0.23", "unit": "pA/pF"}, {"measurement": "L-type Ca2+ current density", "setting": "[1]; Cas 1 µM alone or + Nife 3 µM, -20 mV, Ctrl -3.53±0.98, n=6", "value": "-0.34±0.07", "unit": "pA/pF"}, {"measurement": "inhibition of DHP binding", "setting": "[2]", "value": "could inhibit binding of DHPs"}, {"measurement": "effect on hERG current", "setting": "[3]", "value": "did not record any difference; also recorded: had no effect"}, {"measurement": "effect on outward-going ICav1.2 at +150 mV", "setting": "Cav1.2; Cas 300 nM, n=6/N=3, holding -60 mV", "value": "almost no effect"}, {"measurement": "L-type Ca2+ current density", "setting": "Cav1.2; Cas 300 nM, 0 mV, Ctrl -9.25± 2,32", "value": "-3.32± 0.87", "unit": "pA/pF"}, {"measurement": "L-type Ca2+ current density", "setting": "Cav1.2; Cas 300 nM, +10 mV, Ctrl -9.90± 1,94", "value": "-3.92± 0.94", "unit": "pA/pF"}, {"measurement": "L-type Ca2+ current density", "setting": "Cav1.2; Cas 300 nM, +20 mV, Ctrl -8.05± 1.41", "value": "-3.08± 0.77", "unit": "pA/pF"}, {"measurement": "L-type Ca2+ current density", "setting": "Cav1.2; Cas 300 nM, +30 mV, Ctrl -4.66± 0.82", "value": "-1.53± 0.51", "unit": "pA/pF"}, {"measurement": "L-type Ca2+ current density", "setting": "Cav1.2; Cas 300 nM, -10 mV, Ctrl -5.72± 1.83", "value": "-1.76± 0.46", "unit": "pA/pF"}, {"measurement": "L-type Ca2+ current density", "setting": "Cav1.2; Cas 300 nM, -20 mV, Ctrl -1.41± 0.28", "value": "-0.70± 0.17", "unit": "pA/pF"}, {"measurement": "inhibition at 0.1 µM", "setting": "Cav1.2; [4]", "value": 37, "unit": "%"}, {"measurement": "inhibition at 0.3 µM", "setting": "Cav1.2; [4]", "value": 70, "unit": "%"}, {"measurement": "inhibition at 1 µM", "setting": "Cav1.2; [4]", "value": 80, "unit": "%"}, {"measurement": "inhibition at 0.3 µM", "setting": "Cav1.2; HEK-293T, read-out: inhibition of ICav1.2 (I-V relationship)", "value": "~60", "unit": "%"}, {"measurement": "V0.5 for activation", "setting": "Cav1.2; during Cas application, control −3 ± 2 mV, n = 8, Wilcoxon p = 0.0078", "value": "3 ± 2", "unit": "mV"}]}
